Measurements taken from PubChem BioAssay (NCI).
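All cell lines were grown in 96-well plates and treated with compound for 48 hours. TGI is the concentration that stops growth completely.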

How the values were obtained:
Assay in all cases: DTP human tumour cell line panel, 48 h
IGROV1 ovarian = test system: IGROV1 ovarian
DLD-1 colon = test system: DLD-1 colon
SF-295 CNS = test system: SF-295 CNS
CAKI-1 renal = test system: CAKI-1 renal
SK-MEL-2 melanoma = test system: SK-MEL-2 melanoma
CCRF-CEM leukemia = test system: CCRF-CEM leukemia
SK-MEL-5 melanoma = test system: SK-MEL-5 melanoma
UO-31 renal = test system: UO-31 renal
HOP-18 NSCLC = test system: HOP-18 NSCLC
HOP-92 NSCLC = test system: HOP-92 NSCLC
NCI-H522 lung = test system: NCI-H522 lung
SW-620 colon = test system: SW-620 colon
SF-539 CNS = test system: SF-539 CNS
UACC-257 melanoma = test system: UACC-257 melanoma
NCI-H226 lung = test system: NCI-H226 lung
NCI-H23 lung = test system: NCI-H23 lung
SK-MEL-28 melanoma = test system: SK-MEL-28 melanoma
NCI-H460 lung = test system: NCI-H460 lung
COLO 205 colon = test system: COLO 205 colon
SF-268 CNS = test system: SF-268 CNS
LXFL 529 NSCLC = test system: LXFL 529 NSCLC
SNB-19 CNS = test system: SNB-19 CNS
K-562 leukemia = test system: K-562 leukemia
TK-10 renal = test system: TK-10 renal
OVCAR-8 ovarian = test system: OVCAR-8 ovarian
MALME-3M melanoma = test system: MALME-3M melanoma
OVCAR-3 ovarian = test system: OVCAR-3 ovarian
RXF-631 renal = test system: RXF-631 renal
SNB-75 CNS = test system: SNB-75 CNS
SN12C renal = test system: SN12C renal
SNB-78 CNS = test system: SNB-78 CNS
EKVX NSCLC = test system: EKVX NSCLC
U251 CNS = test system: U251 CNS
786-0 renal = test system: 786-0 renal
HT29 colon = test system: HT29 colon
KM12 colon = test system: KM12 colon
SK-OV-3 ovarian = test system: SK-OV-3 ovarian
ACHN renal = test system: ACHN renal
OVCAR-4 ovarian = test system: OVCAR-4 ovarian
MOLT-4 leukemia = test system: MOLT-4 leukemia
OVCAR-5 ovarian = test system: OVCAR-5 ovarian
M19-MEL melanoma = test system: M19-MEL melanoma
A549 NSCLC = test system: A549 NSCLC
HCT-116 colon = test system: HCT-116 colon
LOX IMVI melanoma = test system: LOX IMVI melanoma
DMS 273 small cell lung = test system: DMS 273 small cell lung
HL-60(TB) leukemia = test system: HL-60(TB) leukemia
UACC-62 melanoma = test system: UACC-62 melanoma
KM20L2 colon = test system: KM20L2 colon
A498 renal = test system: A498 renal
HCC-2998 colon = test system: HCC-2998 colon
HCT-15 colon = test system: HCT-15 colon
SR leukemia = test system: SR leukemia
M14 melanoma = test system: M14 melanoma
DMS 114 small cell lung = test system: DMS 114 small cell lung
RPMI-8226 leukemia = test system: RPMI-8226 leukemia
HOP-62 NSCLC = test system: HOP-62 NSCLC

Measured: TGI

COC(=O)C1CC2c3c(c4ccccc4n3C)CC(C1=O)N2C (centres undefined)
60.7 µM: DMS 114 small cell lung
69 µM: UO-31 renal
87.6 µM: SR leukemia
68.5 µM: HL-60(TB) leukemia
43.6 µM: DMS 273 small cell lung
92.8 µM: HCT-116 colon
34.8 µM: NCI-H522 lung
32.5 µM: COLO 205 colon
50.7 µM: HCT-15 colon
not listed: RPMI-8226 leukemia | HOP-62 NSCLC
> 100 µM: all other assays above

Nc1ncnc2c1ncn2C1OC(CSC(F)F)C(O)C1O (centres undefined)
not listed: SNB-19 CNS | M19-MEL melanoma | SR leukemia
> 100 µM: all other assays above
